US20190148754A1, “USE OF IONIC LIQUIDS AS AN ADJUVANT IN ELECTROCHEMISTRY” (UNIVERSITE DE RENNES 1, priority 2016, published 2019)
Values after ≈ are worked out from the molar mass of the structure shown. Read-outs that look alike come from different tables or passages of the source. Each block holds one compound with its values, some of them ahead of it.

How the values were obtained:
physchem = conditions: aqueous with cosolvent or surfactant or cyclodextrin, thermodynamic from solid, Solubility in KOH 2 mol · L^−1 and ionic liquid: Anthraquinone
[1] = Maximum solubility / solubilisation of organic compounds in ionic liquid/basic aqueous solution mixtures (flask method); conditions: for concentration of solution obtained: KOH 2M; for solubility: thermodynamic from solid; for natural solubility in a solution of pH=14: pH=14, without ionic liquid
[2] = Cyclic voltammetry of electrolytic solutions; format: physicochemical; conditions: vitreous carbon electrode
Experimental: The action of the ionic liquids on the solubility of the organic molecules can be observed by a simple electrochemical analysis. The method used is voltammetry with linear variation of the potential. The result is the plotting of a curve i=f(E) of which the value of the oxidation or reduction current of the electroactive molecule is proportional to its concentration in solution. The electrochemical analyses are performed in an electrochemical cell of which the volume is 40 ml. The volume of the solutions introduced into the electrochemical cell is 10 ml.
In order to perform the analyses, three electrodes immersed in the solution are used: • Working electrode. The working electrode is the location of the studied electrochemical reaction. In this instance, an electrode which is made of vitreous carbon and has a surface of 3 mm diameter, or a nickel electrode of 5 mm diameter was used. The electrochemical reactions are often sensitive to the nature of the electrodes. For example, depending on their nature, some electrodes may passivate and others may not, compared to the same electrochemical system in solution. • Counter electrode. The counter electrode enables the passage of the current in the solution between itself and the working electrode. This electrode must be very stable (for example must not dissolve in the event of oxidation). […]

[3] = aqueous KOH solution with ionic liquid, aqueous with cosolvent or surfactant or cyclodextrin, Solubility in KOH 2 mol · L^−1 and ionic liquid: Anthraquinone, KOH 2 mol·L^−1, ionic liquid (I-a), (I-b) or (I-c) 0.5 mol·L^−1
[4] = aqueous KOH solution without ionic liquid, aqueous buffer, Solubility in KOH 2 mol · L^−1, aqueous KOH 2 mol·L^−1, without ionic liquid

SMILES: O=C1c2ccccc2C(=O)c2ccccc21
solubility (physchem): < 100 mM | natural solubility in a solution of pH=14: very weak

concentration of solution obtained ([1]; 1,3-dimethylimidazolium methyl sulfate 1:1 with alizarin): greater than 0.5 M | concentration of solution obtained ([1]; 1,3-dimethylimidazolium methyl sulfate less than 1:1 to alizarin, precipitate still visible): < 0.5 M | concentration of solution obtained ([1]; N-methylisoquinolinium methyl sulfate 1:1 with alizarin, precipitate still visible): < 0.5 M | concentration in aqueous solution of KOH 2 M with ionic liquid ([1]; KOH 2 M, addition of 10% (vol.) ionic liquid): 0.5 M | concentration of solution obtained ([1]; alizarin/1,3-dimethylimidazolium methyl sulfate/N-methylisoquinolinium methyl sulfate 1:0.5:0.5): 0.8 M | concentration of solution obtained ([1]; either isolated ionic liquid, alizarin/ionic liquid 1:0.5, no solution obtained): < 0.5 M | solubility [1, 3]: 500 mM (≈ 120 mg/mL) | solubility ([1]; aqueous KOH solution with ionic liquid, aqueous with cosolvent or surfactant or cyclodextrin, concentration solubilised in aqueous solution of KOH 2 M with ionic liquid, KOH 2 M, 5% (vol.) ionic liquid): 250 mM (≈ 60.1 mg/mL) | solubility [1, 4]: 100 mM (≈ 24 mg/mL) | solubility ([1]; aqueous KOH solution without ionic liquid, aqueous buffer, soluble concentration in aqueous solution of KOH 2 M, KOH 2 M, without ionic liquid (saturation)): 100 mM (≈ 24 mg/mL)
SMILES: O=C1c2ccccc2C(=O)c2c1ccc(O)c2O [alizarin, Alizarin]

solubility [1, 3]: 100 mM (≈ 22.3 mg/mL) | solubility [1, 4]: < 100 mM | natural solubility in a solution of pH=14 [1]: very weak
SMILES: Nc1cccc2c1C(=O)c1ccccc1C2=O

solubility [1, 3]: 500 mM (≈ 120 mg/mL) | solubility [1, 4]: 100 mM (≈ 24 mg/mL)
SMILES: O=C1c2cccc(O)c2C(=O)c2cccc(O)c21

SMILES: O=C1c2ccccc2C(=O)c2c1cc(S(=O)(=O)[O-])c(O)c2O.[Na+] [Alizarin redS, Alizarin Red S]
increase in the intensity of the oxidation peak and the reduction peak (factor) ([2]; 0.6 M ionic liquid vs none, 100 mV·s^−1 (FIG. 1)): 15 | peak current intensity ([2]; 0.6 mol·L^−1 with 0.6 mol·L^−1 ionic liquid, 100 mV·s^−1): greater than 60 mA·cm^−2 | solubility ([1]; aqueous KOH solution with ionic liquid, aqueous with cosolvent or surfactant or cyclodextrin, Solubility in KOH 2 mol · L^−1 and ionic liquid: Anthraquinone, KOH 2 mol·L^−1, ionic liquid (I-a), (I-b) or (I-c) 0.6 mol·L^−1): 600 mM | solubility ([1]; aqueous KOH solution with ionic liquid, aqueous with cosolvent or surfactant or cyclodextrin, solubility in the presence of ionic liquid, KOH 2 mol·L^−1, 0.6 M ionic liquid): 600 mM | solubility [1, 4]: 200 mM | solubility ([1]; aqueous KOH solution without ionic liquid, aqueous buffer, solubility in a solution of KOH 2 mol·L^−1, KOH 2 mol·L^−1, without ionic liquid): ~200 mM

solubility [1, 3]: 100 mM (≈ 28.8 mg/mL) | solubility [1, 4]: < 100 mM | natural solubility in a solution of pH=14 [1]: very weak
SMILES: O=C1c2ccccc2C(=O)c2cc(S(=O)(=O)O)ccc21
